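Exposure lasted 48 hours, with cells grown in 96-well plates and compounds tested at five concentrations. GI50 marks 50% less growth. Definition used: TGI = concentration required for complete inhibition of growth.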
How the values were obtained:
Assay in all cases: NCI tumour cell line growth inhibition, 48 h
[1] = system: BT-549 breast
[2] = system: MDA-MB-231 breast
[3] = system: HS 578T breast
[4] = system: MDA-N
[5] = system: CCRF-CEM leukemia
[6] = system: HL-60(TB) leukemia
[7] = system: MCF7 breast
[8] = system: NCI-H23 lung
[9] = system: KM12 colon
[10] = system: SK-MEL-28 melanoma
[11] = system: COLO 205 colon
[12] = system: HOP-92 NSCLC

Compound	TGI [1] [µM]	TGI [2] [µM]	TGI [3] [µM]	TGI [4] [µM]	TGI [5] [µM]	TGI [6] [µM]	TGI [7] [µM]	TGI [8] [µM]	TGI [9] [µM]	TGI [10] [µM]	TGI [11] [µM]	TGI [12] [µM]	GI50 [6] [µM]	GI50 [8] [µM]
CCCC[C@H]1CCN2C[C@@H](O)[C@@H](O)[C@H]2[C@@H]1O	> 100	> 100	> 100	> 100	> 100	> 100	> 100	> 100	> 100	> 100	> 100	> 100	–	–
CCOC(=O)c1c(N2CCCC2)[nH]c(=O)c(C(c2cccs2)c2c(O)c(C(=O)OCC)c(N3CCCC3)[nH]c2=O)c1O	> 100	> 100	> 100	> 100	> 100	–	> 100	> 100	> 100	> 100	> 100	> 100	–	–
O=c1oc2ccc([N+](=O)[O-])cc2c(Nc2ccc3c(c2)S(=O)(=O)c2ccccc2O3)c1[N+](=O)[O-]	> 100	> 100	> 100	> 100	> 100	> 100	> 100	> 100	> 100	> 100	> 100	> 100	–	–
S=C1N=C(Cl)/C(=C\c2ccccc2)N1	> 100	> 100	> 100	> 100	> 31.6	> 100	> 100	> 100	> 100	> 100	> 100	> 100	–	–
CN(C)CC1CN=C(NC(=O)Nc2ccccc2)O1 (stereo not given)	> 100	> 100	> 100	> 100	> 100	> 100	> 100	> 100	> 100	> 100	> 100	> 100	–	–
O=C1c2ccccc2C(=O)c2oc(Br)cc21	3.11	7.32	0.732	0.267	6.66	1.17	1.96	0.463	3.2	0.934	3.47	4.23	–	–
NC(=O)c1cccc([C@@H]2O[C@H](CO)[C@@H](O)[C@H]2O)c1	43.4	> 100	74.5	> 100	15.4	10.2	> 100	35.4	15.9	29.6	48.7	> 69.6	–	–
COc1ccc(N=[N+]([O-])c2ccc(OC)cc2)cc1	> 100	> 100	> 100	> 100	–	–	> 100	> 100	> 100	> 100	> 100	> 100	–	–
C=CCn1c(-c2ccc(-c3cs/c(=N\N=O)n3CC=C)cc2)cs/c1=N\N=O	> 100	69.3	> 100	> 100	> 100	> 100	> 100	> 100	> 100	> 100	> 100	> 100	–	–
Cc1ccc2c(=O)cc(-c3sc4ccccc4c3C)[nH]c2n1	44.7	> 100	51.7	45	58.4	42.9	> 100	48.1	36.4	71.4	65.8	30.6	18.5	19.7
N#Cc1sc2c(c1O)c(=O)n(-c1ccccc1)c(=S)n2-c1ccccc1	> 100	> 100	> 100	> 100	–	> 100	> 100	> 100	> 100	> 100	> 100	> 100	–	–
CC1=C(C(=O)OC(C)C)C(c2ccccc2C(F)(F)F)C(C(=O)OC(CO[N+](=O)[O-])CO[N+](=O)[O-])=C(C)N1 (stereo not given)	22.1	28.2	49.8	21.9	11.1	> 100	72.2	> 100	18.5	55.3	63.5	–	–	–
CC#CC(O)(C(=O)OC1CC2CCC(C1)N2C)C1CCCC1 (stereo not given)	> 100	> 100	> 100	> 100	> 100	> 100	> 100	> 100	> 100	> 100	> 100	> 100	–	–
N#CCCN(CCN(CCC#N)C(=O)Nc1ccccc1)C(=O)Nc1ccccc1	> 100	> 100	> 100	> 100	> 100	> 100	> 100	> 100	–	> 100	> 100	> 100	–	–
CC1(C)[C@H]2Cc3cc(-c4cc5c(cn4)[C@@H]4C[C@H]([C@@H]5[C@@H]5c6cc(-c7cc8c(cn7)[C@@H]7C[C@H](C8)C7(C)C)ncc6[C@@H]6C[C@H]5C6(C)C)C4(C)C)ncc3[C@@H]1C2	> 100	> 100	> 100	> 100	> 100	> 100	> 100	> 100	> 100	> 100	> 100	> 100	–	–
COc1cc2c(cc1OC)C(=O)N(NC1=NCCN1)C2=O	> 100	> 100	> 100	> 100	> 100	> 100	> 100	> 100	> 100	> 100	> 100	–	–	–
CCOC(=O)C(=O)C(CCC(=O)c1ccc2ccccc2c1O)C(=O)OCC (stereo not given)	> 100	> 100	> 100	> 100	> 100	> 100	> 100	> 100	> 100	> 100	> 100	> 100	–	–
C/C=C/[C@H](O[Si](C)(C)C(C)(C)C)[C@@H](O)/C=C/C(=O)OCC	65.4	66	79.5	42.8	35.4	–	45.2	> 100	32.3	32.4	40.6	46.3	–	–

— PubChem BioAssay (NCI)
